# Test results as given in ChEMBL document CHEMBL3860105, “Sulfonamide-Based Inhibitors of Aminoglycoside Acetyltransferase Eis Abolish Resistance to Kanamycin in Mycobacterium tuberculosis” (J Med Chem, 2016).
# Legend:
# [1] = tested on: Mycobacterium tuberculosis H37Rv; conditions: 100 uM
# [2] = tested on: Mycobacterium tuberculosis; test: (§1) Inhibition of Mycobacterium tuberculosis K204 acetyltransferase Eis assessed as potentiation of kanamycin A-induced antimicrobial activity by measuring kanamycin A MIC level at 100 uM pre-incubated for 24 hrs before kanamycin A addition followed by incubation for 6 days by alamar blue assay (Rvb kanamycin A alone MIC = 10 ug/ml)
# [3] = tested on: Mycobacterium tuberculosis; test: Antimicrobial activity against Mycobacterium tuberculosis H37Rv at 100 uM incubation for 6 days by alamar blue assay; format: ADME; conditions: 144 h
# [4] = tested on: Mycobacterium tuberculosis; test: Antimicrobial activity against Mycobacterium tuberculosis K204 at 100 uM incubation for 6 days by alamar blue assay; format: ADME; conditions: 144 h
# [5] = tested on: Mycobacterium tuberculosis H37Rv; conditions: 70 uM
# [6] = tested on: Mycobacterium tuberculosis; test: as §1, with “70” for “100”
# [7] = tested on: Mycobacterium tuberculosis; test: Antimicrobial activity against Mycobacterium tuberculosis H37Rv at 70 uM incubation for 6 days by alamar blue assay; format: ADME; conditions: 144 h
# [8] = tested on: Mycobacterium tuberculosis; test: Antimicrobial activity against Mycobacterium tuberculosis K204 at 70 uM incubation for 6 days by alamar blue assay; format: ADME; conditions: 144 h
# [9] = tested on: Mycobacterium tuberculosis H37Rv; conditions: 8 uM
# [10] = tested on: Mycobacterium tuberculosis; test: as §1, with “8” for “100”
# [11] = tested on: Mycobacterium tuberculosis; test: Antimicrobial activity against Mycobacterium tuberculosis H37Rv at 8 uM incubation for 6 days by alamar blue assay; format: ADME; conditions: 144 h
# [12] = tested on: Mycobacterium tuberculosis; test: Antimicrobial activity against Mycobacterium tuberculosis K204 at 8 uM incubation for 6 days by alamar blue assay; format: ADME; conditions: 144 h
# [13] = tested on: Mycobacterium tuberculosis; conditions: 20 uM
# [14] = tested on: Mycobacterium tuberculosis H37Rv; conditions: 23 uM
# [15] = tested on: Mycobacterium tuberculosis; test: as §1, with “23” for “100”
# [16] = tested on: Mycobacterium tuberculosis; test: Antimicrobial activity against Mycobacterium tuberculosis H37Rv at 23 uM incubation for 6 days by alamar blue assay; format: ADME; conditions: 144 h
# [17] = tested on: Mycobacterium tuberculosis; test: Antimicrobial activity against Mycobacterium tuberculosis K204 at 23 uM incubation for 6 days by alamar blue assay; format: ADME; conditions: 144 h
# [18] = tested on: Mycobacterium tuberculosis H37Rv; conditions: 30 uM
# [19] = tested on: Mycobacterium tuberculosis; test: as §1, with “30” for “100”
# [20] = tested on: Mycobacterium tuberculosis; test: Antimicrobial activity against Mycobacterium tuberculosis H37Rv at 30 uM incubation for 6 days by alamar blue assay; format: ADME; conditions: 144 h
# [21] = tested on: Mycobacterium tuberculosis; test: Antimicrobial activity against Mycobacterium tuberculosis K204 at 30 uM incubation for 6 days by alamar blue assay; format: ADME; conditions: 144 h
# [22] = tested on: Mycobacterium tuberculosis H37Rv
# [23] = tested on: Mycobacterium tuberculosis; test: as §1, with “100 uM” left out
# [24] = tested on: Mycobacterium tuberculosis; test: Antimicrobial activity against Mycobacterium tuberculosis H37Rv at […] incubation for 6 days by alamar blue assay; format: ADME; conditions: 144 h
# [25] = tested on: Mycobacterium tuberculosis; test: Antimicrobial activity against Mycobacterium tuberculosis K204 at […] incubation for 6 days by alamar blue assay; format: ADME; conditions: 144 h
# [26] = tested on: Mycobacterium tuberculosis; test: Inhibition of Mycobacterium tuberculosis AAC(2')-Ic at 200 uM
# [27] = tested on: Mycobacterium tuberculosis; test: Antimicrobial activity against Mycobacterium tuberculosis H37Rv at 37 uM incubation for 6 days by alamar blue assay; format: ADME; conditions: 144 h
# [28] = tested on: Mycobacterium tuberculosis; test: Antimicrobial activity against Mycobacterium tuberculosis K204 at 37 uM incubation for 6 days by alamar blue assay; format: ADME; conditions: 144 h
# [29] = tested on: Mycobacterium tuberculosis H37Rv; remark: listed apart in the source
# [30] = tested on: Mycobacterium tuberculosis H37Rv; conditions: 10 uM
# [31] = tested on: Mycobacterium tuberculosis; test: as §1, with “10” for “100”
# [32] = tested on: Mycobacterium tuberculosis; test: Antimicrobial activity against Mycobacterium tuberculosis H37Rv at 10 uM incubation for 6 days by alamar blue assay; format: ADME; conditions: 144 h
# [33] = tested on: Mycobacterium tuberculosis; test: Antimicrobial activity against Mycobacterium tuberculosis K204 at 10 uM incubation for 6 days by alamar blue assay; format: ADME; conditions: 144 h
# [34] = tested on: Mycobacterium tuberculosis H37Rv; conditions: 37 uM
# [35] = tested on: Mycobacterium tuberculosis; test: as §1, with “37” for “100”
# [36] = tested on: Mycobacterium tuberculosis H37Rv; conditions: 25 uM
# [37] = tested on: Mycobacterium tuberculosis; test: as §1, with “25” for “100”
# [38] = tested on: Mycobacterium tuberculosis; test: Antimicrobial activity against Mycobacterium tuberculosis H37Rv at 25 uM incubation for 6 days by alamar blue assay; format: ADME; conditions: 144 h
# [39] = tested on: Mycobacterium tuberculosis; test: Antimicrobial activity against Mycobacterium tuberculosis K204 at 25 uM incubation for 6 days by alamar blue assay; format: ADME; conditions: 144 h
Structure (SMILES),MIC [1] [µg/mL],MIC [2] [µg/mL],Activity [3],Activity [4],further results
COc1ccccc1N(C)S(=O)(=O)c1ccc2[nH]c(=O)c(=O)[nH]c2c1,< 1.25,10,Non-Toxic,Non-Toxic,–
CCCCc1cccc(N(C)S(=O)(=O)c2ccc3[nH]c(=O)c(=O)[nH]c3c2)c1,–,–,–,–,MIC [5]: < 1.25 µg/mL; MIC [6]: 5 to 10 µg/mL; Activity [7]: Non-Toxic; Activity [8]: Non-Toxic
CN(c1ccc(Br)cc1)S(=O)(=O)c1ccc2[nH]c(=O)c(=O)[nH]c2c1,–,–,–,–,MIC [9]: < 1.25 µg/mL; MIC [10]: 2.5 µg/mL; Activity [11]: Non-Toxic; Activity [12]: Non-Toxic
O=c1[nH]c2ccc(S(=O)(=O)Nc3ccc(Cl)c(C(F)(F)F)c3)cc2[nH]c1=O,–,–,–,–,fold change (FC) [13]: > 3
CC(C)c1cccc(N(C)S(=O)(=O)c2ccc3[nH]c(=O)c(=O)[nH]c3c2)c1,–,–,–,–,MIC [14]: < 1.25 µg/mL; MIC [15]: 2.5 to 5 µg/mL; Activity [16]: Non-Toxic; Activity [17]: Non-Toxic
CC(C)c1ccc(NS(=O)(=O)c2ccc3[nH]c(=O)c(=O)[nH]c3c2)cc1,< 1.25,5,Non-Toxic,Non-Toxic,–
O=c1[nH]c2ccc(S(=O)(=O)Nc3ccccc3)cc2[nH]c1=O,< 1.25,10,Non-Toxic,Non-Toxic,–
CN(c1ccc2ccccc2c1)S(=O)(=O)c1ccc2[nH]c(=O)c(=O)[nH]c2c1,< 1.25,< 1.25,Non-Toxic,Non-Toxic,–
CN(c1cccc(F)c1)S(=O)(=O)c1ccc2[nH]c(=O)c(=O)[nH]c2c1,–,–,–,–,MIC [18]: < 1.25 µg/mL; MIC [19]: 5 µg/mL; Activity [20]: Non-Toxic; Activity [21]: Non-Toxic
CN(c1ccccc1)S(=O)(=O)c1ccc2[nH]c(=O)c(=O)[nH]c2c1,< 1.25,5,Non-Toxic,Non-Toxic,–
CN(c1cccc(Br)c1)S(=O)(=O)c1ccc2[nH]c(=O)c(=O)[nH]c2c1,–,–,–,–,MIC [22]: < 1.25 µg/mL; MIC [23]: 2.5 µg/mL; Activity [24]: Non-Toxic; Activity [25]: Non-Toxic
COc1cccc(N(C)S(=O)(=O)c2ccc3[nH]c(=O)c(=O)[nH]c3c2)c1,< 1.25,< 1.25,Non-Toxic,Non-Toxic,inhibition [26]: 15%
COc1cc(N(C)S(=O)(=O)c2ccc3[nH]c(=O)c(=O)[nH]c3c2)cc2ccccc12,< 1.25,10,Non-Toxic,Non-Toxic,–
O=c1[nH]c2ccc(S(=O)(=O)Nc3ccc4c(c3)OCCO4)cc2[nH]c1=O,–,–,–,–,fold change (FC) [13]: > 3
Cc1cccc(N(C)S(=O)(=O)c2ccc3[nH]c(=O)c(=O)[nH]c3c2)c1,–,–,–,–,Activity [27]: Non-Toxic; Activity [28]: Non-Toxic
O=c1[nH]c2ccc(S(=O)(=O)Nc3ccc(Br)cc3)cc2[nH]c1=O,< 1.25,5,Non-Toxic,Non-Toxic,–
CN(c1cccc(C(C)(C)C)c1)S(=O)(=O)c1ccc2[nH]c(=O)c(=O)[nH]c2c1,< 1.25,5 to 10,Non-Toxic,Non-Toxic,–
COc1cc(OC)cc(N(C)S(=O)(=O)c2ccc3[nH]c(=O)c(=O)[nH]c3c2)c1,< 1.25,5 to 10,Non-Toxic,Non-Toxic,–
CCc1cccc(N(C)S(=O)(=O)c2ccc3[nH]c(=O)c(=O)[nH]c3c2)c1,–,–,–,–,MIC [29]: < 1.25 µg/mL; MIC [23]: 5 to 10 µg/mL; Activity [24]: Non-Toxic; Activity [25]: Non-Toxic
CN(c1ccc(Cl)cc1)S(=O)(=O)c1ccc2[nH]c(=O)c(=O)[nH]c2c1,–,–,–,–,MIC [30]: < 1.25 µg/mL; MIC [31]: 2.5 µg/mL; Activity [32]: Non-Toxic; Activity [33]: Non-Toxic
Cc1cccc(N(C)S(=O)(=O)c2ccc3nc(O)c(O)nc3c2)c1,–,–,–,–,MIC [34]: < 1.25 µg/mL; MIC [35]: 2.5 to 5 µg/mL
Cc1cc(NS(=O)(=O)c2ccc3[nH]c(=O)c(=O)[nH]c3c2)ccc1Br,–,–,–,–,fold change (FC) [13]: > 3
CC(C)c1ccc(N(C)S(=O)(=O)c2ccc3[nH]c(=O)c(=O)[nH]c3c2)cc1,–,–,–,–,MIC [36]: < 1.25 µg/mL; MIC [37]: 2.5 to 5 µg/mL; Activity [38]: Non-Toxic; Activity [39]: Non-Toxic
